Assay results: patent US4623715A, “Novel peptides which are active on the central nervous system and have an action on the cholinergic system” (Hoechst Aktiengeselleschaft, priority 1984, dated 1986)

Experiments:
[1] = system: cholinergic system (striatum of rats); assay: Biochemical effects in the striatum (acetylcholine and choline content) after s.c. administration; action on the cholinergic system; assay type: in vivo; conditions: for Biochemical effects in the striatum: ACH (acetylcholine) / Biochemical effects in the striatum: CH (choline): s.c., at the dose printed in the same line (E2), arrow up/down = content increased/reduced; for Biochemical effects in the striatum: Dose mcg/kg s.c.; (rats): s.c. dose in rats at which the ACH/CH effects of the same line are reported
Procedure: At the same time, cholinergic mechanisms in the central nervous system (CNS) are influenced. In the striatum of rats, the choline content is reduced and the acetylcholine content is increased following subcutaneous administration of 10 μg.
The action of the compounds according to the invention on the cholinergic system is determined by a method described in J. Neurochem. 20 (1973), pages 1-8.

[2] = system: rats; assay: Behavior (grooming, yawning, stretching; urge to groom and move) after i.c.v. administration; assay type: in vivo; conditions: i.c.v. administration of 10 μg
[3] = system: acetylcholine conversion in various areas of the brain; conditions: intracerebroventricular (i.c.v.) administration; cited from earlier work
[4] = system: cholinergic system (striatum of rats); assay: Biochemical effects in the striatum (acetylcholine and choline content) after s.c. administration; action on the cholinergic system; assay type: in vivo; conditions: s.c. administration of 1 μg
[5] = rats, subcutaneous administration of 10 μg

Compound	acetylcholine content in the striatum [1, 5]	choline content in the striatum [1, 5]	urge to groom and move [2]	acetylcholine conversion in various areas of the brain [3]	Biochemical effects in the striatum: ACH (acetylcholine) ([1]; rats)	Biochemical effects in the striatum: CH (choline) ([1]; rats)	Biochemical effects in the striatum: Dose mcg/kg s.c.; (rats) [1] [µg/kg]	acetylcholine content in the striatum ([4]; same actions as IV at 10 μg (increased))	choline content in the striatum ([4]; same actions as IV at 10 μg (reduced))
COC(=O)[C@H](Cc1ccccc1)NC(=O)[C@H](CCCCN)NC(=O)OCc1ccccc1 [IV, Z--Lys--Phe--OMe]	increased	reduced	cause the urge to groom and move	–	–	–	–	–	–
ACTH (SYSMEHFRWGKPVGKKRRPVKVYPNGAEDESAEAFPLEF; Corticotropin; UniProt P01189 138-176, looked up) [peptide hormone cited from the literature]	–	–	–	acceleration	–	–	–	–	–
ACTH--(1-24) [VI, reference compound]	–	–	–	acceleration	.dwnarw.	.uparw.	0.01 to 1	–	–
Z--D--Lys--Phe--NH--(CH2)8 --NH2.2HCl [V]	–	–	–	–	.uparw.	.dwnarw.	1.0	the same actions	the same actions
